Test in all cases: biochemical
Holding throughout (set-up): DiscoverX KinomeScan competition binding assay across human kinases; per cent of control at 10 and 100 uM

One assay concerns the target PRKD2 (Homo sapiens, UniProt Q9BZL6). The settings on record: competition binding, % of control; read-out: Percent Control (100 uM Levosimendan). The method, boiled down: (§1)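 KinomeScan competition binding was run across a human kinase panel at 10 μM and 100 μM levosimendan. Results are %control = (test − positive control)/(negative control − positive control) × 100.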

A further assay concerns the target VRK2 (Homo sapiens, UniProt Q86Y07). The settings on record: competition binding, % of control; read-out: Percent Control (100 uM Levosimendan). The method, boiled down: as §1
A further assay concerns the target RET(V804M) (Homo sapiens, UniProt P07949, V804M). The settings on record: competition binding, % of control; read-out: Percent Control (100 uM Levosimendan). The method, boiled down: as §1
In another assay the target is MARK3 (Homo sapiens, UniProt P27448). The settings on record: competition binding, % of control; read-out: Percent Control (100 uM Levosimendan). In outline:
as §1

The next assay has as its target BMPR1A (Homo sapiens, UniProt P36894). The settings on record: competition binding, % of control; read-out: Percent Control (100 uM Levosimendan). The method, boiled down:
as §1

The target of another assay is FGR (Homo sapiens, UniProt P09769). The settings on record: competition binding, % of control. In outline: as §1
Another assay concerns the target T1, ARK5 (Homo sapiens, UniProt O60285).
T1 construct: gene NUAK1
The settings on record: competition binding, % of control; read-out: Percent Control (100 uM Levosimendan). The method, boiled down:
as §1

The target of a further assay is BMPR1B (Homo sapiens, UniProt O00238). The settings on record: competition binding, % of control. The method, boiled down:
as §1

In the next assay the target is ITK (Homo sapiens, UniProt Q08881). The settings on record: competition binding, % of control; read-out: Percent Control (100 uM Levosimendan). The method, boiled down: as §1
The target in the next assay is EGFR(L861Q) (Homo sapiens, UniProt P00533, L861Q). The settings on record: competition binding, % of control; read-out: Percent Control (100 uM Levosimendan). The method, boiled down:
as §1

The next assay concerns the target NEK6 (Homo sapiens, UniProt Q9HC98). The settings on record: competition binding, % of control; read-out: Percent Control (100 uM Levosimendan). In outline:
as §1

For a further assay, the target named is CSNK1D (Homo sapiens, UniProt P48730). The settings on record: competition binding, % of control; read-out: Percent Control (100 uM Levosimendan). In outline: as §1
The target of a further assay is DAPK3 (Homo sapiens, UniProt O43293). The settings on record: competition binding, % of control; read-out: Percent Control (100 uM Levosimendan). In outline: as §1
For a further assay, the target named is EGFR(T790M) (Homo sapiens, UniProt P00533, T790M). The settings on record: competition binding, % of control. The method, boiled down:
as §1

Another assay has as its target NEK5 (Homo sapiens, UniProt Q6P3R8). The settings on record: competition binding, % of control; read-out: Percent Control (100 uM Levosimendan). In outline: as §1
The target in another assay is EGFR(L858R,T790M) (Homo sapiens, UniProt P00533, L858R/T790M). The settings on record: competition binding, % of control; read-out: Percent Control (100 uM Levosimendan). The method, boiled down:
as §1

In a further assay the target is SGK2 (Homo sapiens, UniProt Q9HBY8). The settings on record: competition binding, % of control; read-out: Percent Control (100 uM Levosimendan). In outline: as §1
For a further assay, the target named is T2, HPK1 (Homo sapiens, UniProt Q92918).
T2 construct: gene MAP4K1
The settings on record: competition binding, % of control; read-out: Percent Control (100 uM Levosimendan). In outline: as §1

Another assay addresses EPHA8 (Homo sapiens, UniProt P29322). The settings on record: competition binding, % of control; read-out: Percent Control (100 uM Levosimendan). The method, boiled down: as §1
Where [1] appears, read: read-out: Percent Control (10 uM Levosimendan).
Setting [2] is: read-out: Percent Control (100 uM Levosimendan).

Chain of EGFR(T790M) (P00533 whole entry T790M): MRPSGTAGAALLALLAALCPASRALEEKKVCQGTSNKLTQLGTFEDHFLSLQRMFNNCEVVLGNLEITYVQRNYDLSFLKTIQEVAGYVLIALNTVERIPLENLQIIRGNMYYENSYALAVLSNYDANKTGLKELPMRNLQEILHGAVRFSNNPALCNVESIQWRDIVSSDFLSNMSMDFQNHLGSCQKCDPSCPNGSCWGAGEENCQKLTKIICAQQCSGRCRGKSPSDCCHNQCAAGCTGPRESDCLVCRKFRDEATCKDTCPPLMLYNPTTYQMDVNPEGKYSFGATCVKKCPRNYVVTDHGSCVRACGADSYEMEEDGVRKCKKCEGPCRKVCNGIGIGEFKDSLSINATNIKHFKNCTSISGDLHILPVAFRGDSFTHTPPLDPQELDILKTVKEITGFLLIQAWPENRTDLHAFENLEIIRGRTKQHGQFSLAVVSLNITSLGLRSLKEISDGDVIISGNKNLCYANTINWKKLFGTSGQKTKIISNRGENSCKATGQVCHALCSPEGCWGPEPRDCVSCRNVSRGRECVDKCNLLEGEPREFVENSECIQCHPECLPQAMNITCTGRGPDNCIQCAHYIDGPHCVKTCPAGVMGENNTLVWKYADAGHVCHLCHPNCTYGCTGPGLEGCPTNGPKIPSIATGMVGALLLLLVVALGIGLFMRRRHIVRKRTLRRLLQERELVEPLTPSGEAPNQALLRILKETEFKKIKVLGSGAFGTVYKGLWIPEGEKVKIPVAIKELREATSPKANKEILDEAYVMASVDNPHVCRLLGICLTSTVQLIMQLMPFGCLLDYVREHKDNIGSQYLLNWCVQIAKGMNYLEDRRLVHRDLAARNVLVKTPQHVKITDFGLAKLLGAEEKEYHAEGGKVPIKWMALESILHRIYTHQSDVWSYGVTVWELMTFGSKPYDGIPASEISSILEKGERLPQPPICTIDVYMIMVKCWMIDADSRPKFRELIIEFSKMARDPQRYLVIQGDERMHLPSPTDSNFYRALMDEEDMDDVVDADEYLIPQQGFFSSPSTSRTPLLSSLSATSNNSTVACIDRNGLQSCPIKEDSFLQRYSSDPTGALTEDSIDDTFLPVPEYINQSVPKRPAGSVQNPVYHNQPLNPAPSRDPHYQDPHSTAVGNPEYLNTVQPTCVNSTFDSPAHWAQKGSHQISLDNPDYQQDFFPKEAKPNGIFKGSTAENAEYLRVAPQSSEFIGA
Chain of BMPR1B (O00238 whole entry): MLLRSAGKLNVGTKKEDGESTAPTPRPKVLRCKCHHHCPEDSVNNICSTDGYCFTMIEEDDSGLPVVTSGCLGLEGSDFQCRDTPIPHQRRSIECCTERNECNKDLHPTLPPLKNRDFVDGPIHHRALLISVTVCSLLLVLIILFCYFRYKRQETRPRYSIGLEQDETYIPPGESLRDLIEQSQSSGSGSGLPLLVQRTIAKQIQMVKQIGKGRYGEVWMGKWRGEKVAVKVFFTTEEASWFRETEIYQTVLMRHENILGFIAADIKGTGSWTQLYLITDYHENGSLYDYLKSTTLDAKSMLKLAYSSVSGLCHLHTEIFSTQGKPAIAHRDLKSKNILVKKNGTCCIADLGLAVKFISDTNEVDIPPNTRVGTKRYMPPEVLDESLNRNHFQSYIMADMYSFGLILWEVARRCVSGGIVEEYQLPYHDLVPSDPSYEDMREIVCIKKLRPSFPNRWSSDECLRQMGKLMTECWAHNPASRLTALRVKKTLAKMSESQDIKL
Chain of FGR (P09769 whole entry): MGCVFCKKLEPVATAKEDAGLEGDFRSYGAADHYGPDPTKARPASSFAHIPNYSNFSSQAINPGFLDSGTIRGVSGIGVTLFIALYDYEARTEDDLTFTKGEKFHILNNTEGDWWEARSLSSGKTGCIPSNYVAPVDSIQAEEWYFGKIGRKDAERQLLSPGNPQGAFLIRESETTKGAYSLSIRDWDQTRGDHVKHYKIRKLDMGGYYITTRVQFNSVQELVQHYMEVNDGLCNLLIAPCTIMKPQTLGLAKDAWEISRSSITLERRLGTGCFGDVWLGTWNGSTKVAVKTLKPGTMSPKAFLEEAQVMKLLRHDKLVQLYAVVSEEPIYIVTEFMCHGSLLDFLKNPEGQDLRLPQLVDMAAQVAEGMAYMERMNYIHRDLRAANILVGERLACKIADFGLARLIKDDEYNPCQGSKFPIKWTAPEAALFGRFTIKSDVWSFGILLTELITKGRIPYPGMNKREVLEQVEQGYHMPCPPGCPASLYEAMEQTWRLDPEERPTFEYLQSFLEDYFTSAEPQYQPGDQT
T1 sequence (O60285 whole entry): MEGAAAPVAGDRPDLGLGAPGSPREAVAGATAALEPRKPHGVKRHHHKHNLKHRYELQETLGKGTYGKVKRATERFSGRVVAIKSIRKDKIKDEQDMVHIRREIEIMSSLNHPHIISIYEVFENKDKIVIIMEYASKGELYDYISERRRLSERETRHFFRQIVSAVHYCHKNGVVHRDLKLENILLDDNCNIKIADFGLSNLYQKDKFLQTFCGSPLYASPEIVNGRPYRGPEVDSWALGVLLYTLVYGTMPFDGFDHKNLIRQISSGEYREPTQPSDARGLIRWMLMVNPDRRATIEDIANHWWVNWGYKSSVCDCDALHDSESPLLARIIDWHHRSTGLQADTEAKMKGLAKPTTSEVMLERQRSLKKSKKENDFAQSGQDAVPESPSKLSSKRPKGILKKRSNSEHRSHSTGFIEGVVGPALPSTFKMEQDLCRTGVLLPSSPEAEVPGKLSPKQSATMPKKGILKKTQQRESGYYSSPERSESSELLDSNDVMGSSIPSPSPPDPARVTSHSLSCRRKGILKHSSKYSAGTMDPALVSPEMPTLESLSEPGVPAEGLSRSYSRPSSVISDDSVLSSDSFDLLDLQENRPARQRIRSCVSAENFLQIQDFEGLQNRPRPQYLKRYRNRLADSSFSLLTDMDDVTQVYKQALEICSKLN
Chain of ITK (Q08881 whole entry): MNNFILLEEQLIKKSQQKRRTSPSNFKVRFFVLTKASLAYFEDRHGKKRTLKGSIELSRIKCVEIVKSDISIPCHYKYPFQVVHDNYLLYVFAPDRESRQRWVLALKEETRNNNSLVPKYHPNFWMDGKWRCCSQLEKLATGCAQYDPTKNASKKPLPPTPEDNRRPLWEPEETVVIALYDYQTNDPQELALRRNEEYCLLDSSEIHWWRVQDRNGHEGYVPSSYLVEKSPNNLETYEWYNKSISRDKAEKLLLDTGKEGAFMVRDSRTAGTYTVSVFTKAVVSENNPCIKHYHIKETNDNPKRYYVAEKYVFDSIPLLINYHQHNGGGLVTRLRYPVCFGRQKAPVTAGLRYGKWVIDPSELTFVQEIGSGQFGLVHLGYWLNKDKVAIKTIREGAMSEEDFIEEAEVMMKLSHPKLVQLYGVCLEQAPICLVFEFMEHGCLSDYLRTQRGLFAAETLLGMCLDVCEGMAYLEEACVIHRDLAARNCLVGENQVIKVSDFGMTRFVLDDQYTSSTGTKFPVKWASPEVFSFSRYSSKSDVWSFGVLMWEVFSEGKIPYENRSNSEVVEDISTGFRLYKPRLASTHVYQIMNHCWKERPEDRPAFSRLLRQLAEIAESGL
Chain of EGFR(L858R,T790M) (P00533 whole entry T790M/L858R): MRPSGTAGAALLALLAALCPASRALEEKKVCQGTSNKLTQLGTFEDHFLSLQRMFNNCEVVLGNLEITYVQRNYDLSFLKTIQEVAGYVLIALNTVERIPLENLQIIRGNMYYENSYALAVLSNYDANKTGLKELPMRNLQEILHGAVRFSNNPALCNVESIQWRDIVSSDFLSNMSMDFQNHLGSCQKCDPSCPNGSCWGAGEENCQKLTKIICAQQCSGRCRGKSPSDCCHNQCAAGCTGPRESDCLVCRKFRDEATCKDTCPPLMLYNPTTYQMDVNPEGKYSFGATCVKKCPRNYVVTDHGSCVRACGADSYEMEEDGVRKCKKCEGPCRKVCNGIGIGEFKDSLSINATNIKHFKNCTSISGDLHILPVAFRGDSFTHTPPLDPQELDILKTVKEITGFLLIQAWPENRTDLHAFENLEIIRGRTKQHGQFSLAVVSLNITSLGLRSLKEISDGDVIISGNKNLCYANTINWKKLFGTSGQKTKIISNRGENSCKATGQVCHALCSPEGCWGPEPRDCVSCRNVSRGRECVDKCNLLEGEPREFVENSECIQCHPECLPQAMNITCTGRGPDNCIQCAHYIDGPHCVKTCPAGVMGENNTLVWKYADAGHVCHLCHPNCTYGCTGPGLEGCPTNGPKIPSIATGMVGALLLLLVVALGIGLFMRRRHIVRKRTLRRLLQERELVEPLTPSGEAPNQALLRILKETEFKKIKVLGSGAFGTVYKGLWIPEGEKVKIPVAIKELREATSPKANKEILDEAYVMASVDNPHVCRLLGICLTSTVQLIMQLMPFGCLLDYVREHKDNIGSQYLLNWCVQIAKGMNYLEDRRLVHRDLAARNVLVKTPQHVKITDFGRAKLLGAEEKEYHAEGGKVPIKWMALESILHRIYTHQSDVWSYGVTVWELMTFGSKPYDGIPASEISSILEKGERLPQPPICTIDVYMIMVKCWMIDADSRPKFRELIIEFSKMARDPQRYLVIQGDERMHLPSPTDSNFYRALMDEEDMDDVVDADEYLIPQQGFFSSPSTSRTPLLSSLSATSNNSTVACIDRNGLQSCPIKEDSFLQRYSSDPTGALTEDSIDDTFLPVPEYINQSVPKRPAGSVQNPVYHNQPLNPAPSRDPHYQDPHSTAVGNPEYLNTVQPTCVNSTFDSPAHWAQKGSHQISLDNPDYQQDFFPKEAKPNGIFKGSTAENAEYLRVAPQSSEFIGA
Chain of NEK6 (Q9HC98 whole entry): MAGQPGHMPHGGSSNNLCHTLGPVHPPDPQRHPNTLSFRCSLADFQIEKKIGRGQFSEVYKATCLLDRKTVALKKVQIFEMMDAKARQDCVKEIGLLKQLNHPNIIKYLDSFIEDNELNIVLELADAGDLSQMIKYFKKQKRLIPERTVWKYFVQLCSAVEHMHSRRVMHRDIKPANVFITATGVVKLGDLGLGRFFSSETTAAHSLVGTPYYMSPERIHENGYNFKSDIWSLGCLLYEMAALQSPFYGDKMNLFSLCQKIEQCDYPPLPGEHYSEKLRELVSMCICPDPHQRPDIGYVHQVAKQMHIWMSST

On to `C[C@@H]1CC(=O)NN=C1c1ccc(NN=C(C#N)C#N)cc1` [levosimendan], for which the remaining binding at 100 µM on PRKD2 was found to be 75%; at VRK2, 69%; at RET(V804M), 80%; at MARK3 it was 95%; on BMPR1A, 93%; on FGR (setting [2]), 49%. Besides, the remaining binding at 100 µM at ARK5 stood at 100%; at BMPR1B (setting [2]) it was 36%; at ITK it was 86%; on EGFR(L861Q), 71%; at NEK6 it was 71%; at CSNK1D it was 84%. Moreover, the remaining binding at 100 µM on DAPK3 was 60%; at EGFR(T790M) (setting [2]), 31%; on NEK5, 86%; at EGFR(L858R,T790M), 82%; on SGK2, 90%; on HPK1 it was 95%. Also, the remaining binding at 100 µM at EPHA8 came to 91%. Besides, the remaining binding at 10 µM amounted to 100% at FGR (setting [1]), 82% on BMPR1B (setting [1]) and 88% at EGFR(T790M) (setting [1]).
